Source: patent US20090111801A1, “SUBSTITUTED PYRAZINONE DERIVATIVES FOR USE AS A MEDICINE” (Janssen Pharmaceutica N.V., priority 2006, published 2009)

Legend:
hα2A receptor = biological target: T1, hα2A receptor (Homo sapiens, UniProt P08913); assay: Radioligand binding experiment for α2A-adrenoceptor ([3H]raulwolscine, CHO cell membranes); conditions: [3H]raulwolscine binding; for IC50: read-out: h-α2A pIC50 (converted)
T1 construct: expressed in transfected cells; host or cells: CHO cells, stably transfected; membrane preparation
T1 sequence (P08913 1-465): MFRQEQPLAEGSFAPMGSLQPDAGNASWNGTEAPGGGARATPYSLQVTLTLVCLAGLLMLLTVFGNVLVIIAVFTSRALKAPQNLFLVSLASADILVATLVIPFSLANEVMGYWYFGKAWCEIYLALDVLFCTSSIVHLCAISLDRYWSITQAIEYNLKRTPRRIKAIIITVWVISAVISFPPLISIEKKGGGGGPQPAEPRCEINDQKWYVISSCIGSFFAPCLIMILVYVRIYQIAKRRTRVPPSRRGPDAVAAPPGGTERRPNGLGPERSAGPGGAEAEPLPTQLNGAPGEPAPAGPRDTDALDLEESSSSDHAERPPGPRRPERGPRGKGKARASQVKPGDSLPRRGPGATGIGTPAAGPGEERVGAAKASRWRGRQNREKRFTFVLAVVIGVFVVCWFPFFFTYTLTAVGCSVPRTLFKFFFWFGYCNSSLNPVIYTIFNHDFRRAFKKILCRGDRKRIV

hα2C receptor = biological target: T2, hα2C receptor (Homo sapiens, UniProt P18825); assay: Radioligand binding experiment for α2C-adrenoceptor ([3H]raulwolscine, CHO cell membranes); conditions: [3H]raulwolscine binding; for IC50: read-out: h-α2C pIC50 (converted)
T2 construct: expressed in transfected cells; host or cells: CHO cells, stably transfected; membrane preparation
T2 sequence (P18825 1-462): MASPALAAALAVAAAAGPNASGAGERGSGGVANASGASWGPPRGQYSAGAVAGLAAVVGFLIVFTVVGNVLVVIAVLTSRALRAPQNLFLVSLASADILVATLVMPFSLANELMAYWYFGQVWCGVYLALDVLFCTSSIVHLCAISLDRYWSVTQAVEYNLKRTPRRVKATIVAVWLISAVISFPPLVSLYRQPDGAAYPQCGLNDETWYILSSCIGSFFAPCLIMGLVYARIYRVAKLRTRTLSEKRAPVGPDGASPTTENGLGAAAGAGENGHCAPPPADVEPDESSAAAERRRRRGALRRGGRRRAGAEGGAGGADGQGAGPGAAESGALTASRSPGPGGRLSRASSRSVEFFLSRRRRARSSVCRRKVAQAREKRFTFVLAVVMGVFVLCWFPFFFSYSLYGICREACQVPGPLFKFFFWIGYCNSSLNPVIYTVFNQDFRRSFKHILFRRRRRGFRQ

5HT-Transporter = biological target: T3, 5HT-Transporter (Homo sapiens, UniProt P31645); assay: Binding experiment for the 5HT-transporter ([3H]paroxetine, human platelet membranes); conditions: [3H]paroxetine 0.5 nM; for IC50: read-out: h-5HTT pIC50 (converted)
T3 construct: Human platelet membranes (Oceanix Biosciences Corporation, Hanover, Md., USA) were thawed; tissue Oceanix Biosciences Corporation, Hanover, Md., USA; host or cells: human platelet membranes
Summary of the method: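 Competition binding of [3H]paroxetine to human platelet membranes in Tris-HCl 50 mM, 120 mM NaCl, 5 mM KCl, with filtration and scintillation counting.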

T3 sequence (P31645 whole entry): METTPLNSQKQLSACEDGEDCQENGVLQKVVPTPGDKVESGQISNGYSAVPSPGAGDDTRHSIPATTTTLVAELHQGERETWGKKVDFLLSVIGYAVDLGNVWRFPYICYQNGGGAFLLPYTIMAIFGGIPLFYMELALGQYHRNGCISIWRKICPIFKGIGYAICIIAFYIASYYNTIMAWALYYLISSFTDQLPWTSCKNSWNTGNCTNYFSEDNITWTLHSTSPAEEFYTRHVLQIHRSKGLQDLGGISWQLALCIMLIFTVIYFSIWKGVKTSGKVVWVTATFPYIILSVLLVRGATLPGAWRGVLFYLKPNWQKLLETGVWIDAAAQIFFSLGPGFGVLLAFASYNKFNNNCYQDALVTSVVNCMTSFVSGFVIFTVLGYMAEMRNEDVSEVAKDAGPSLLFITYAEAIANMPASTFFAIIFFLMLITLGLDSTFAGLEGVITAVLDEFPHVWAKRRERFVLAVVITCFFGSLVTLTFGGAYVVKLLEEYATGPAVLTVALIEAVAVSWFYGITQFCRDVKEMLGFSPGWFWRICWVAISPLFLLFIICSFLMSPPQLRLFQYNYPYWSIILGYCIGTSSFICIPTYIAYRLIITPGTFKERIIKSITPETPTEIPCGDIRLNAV

Structure (SMILES)	IC50 (hα2A receptor) [nM]	IC50 (hα2C receptor) [nM]	IC50 (5HT-Transporter) [nM]	h-α2A pIC50 (hα2A receptor)	h-α2C pIC50 (hα2C receptor)	h-5HTT pIC50 (5HT-Transporter)
C/C(=C\c1ccccc1)CN1CCC(Nc2nccn(CCCN3C(=O)c4ccccc4C3=O)c2=O)CC1 [2-50]	31.6	1	126	–	–	–
C/C(=C\c1ccccc1)CN1CCC(Nc2nccn(CCCCN3C(=O)c4ccccc4C3=O)c2=O)CC1 [2-51]	100	3.98	158	–	–	–
C/C(=C\c1ccccc1)CN1CCC(Nc2nccn(C/C=C/CN3C(=O)c4ccccc4C3=O)c2=O)CC1 [2-52]	50.1	2	31.6	–	–	–
C/C(=C\c1ccccc1)CN1CCC(Nc2nccn(CC#CCN3C(=O)c4ccccc4C3=O)c2=O)CC1 [2-53]	200	3.16	63.1	–	–	–
C/C(=C\c1ccccc1)CN1CCC(Nc2nccn(CC#CCN3C(=O)c4ccccc4C3=O)c2=O)CC1 [2-54]	126	6.31	50.1	–	–	–
C/C(=C\c1ccccc1)CN1CCC(Nc2nccn(-c3ccc(CN4C(=O)c5ccccc5C4=O)cc3)c2=O)CC1 [2-55]	–	–	–	6.8	8.0	6.6
C/C(=C\c1ccccc1)CN1CCC(Nc2nccn(CC(=O)O)c2=O)CC1 [3-1]	–	–	–	6.6	7.4	<5
C/C(=C\c1ccccc1)CN1CCC(Nc2nccn(-c3cccc(CO)c3)c2=O)CC1 [3-2]	79.4	12.6	5010	–	–	–
C/C(=C\c1ccccc1)CN1CCC(Nc2nccn(-c3ccc(CO)cc3)c2=O)CC1 [3-3]	–	–	–	6.8	7.8	5.2
C/C(=C\c1ccccc1)CN1CCC(Nc2nccn(-c3ccc(C(=O)O)cc3)c2=O)CC1 [3-4]	631	79.4	> 10000	–	–	–
COCCCn1ccnc(NC2CCN(C/C(C)=C/c3ccccc3)CC2)c1=O [3-6]	631	63.1	3980	–	–	–
COC(=O)Cn1ccnc(NC2CCN(C/C(C)=C/c3ccccc3)CC2)c1=O [3-7]	100	10	7940	–	–	–
COC(=O)CCCCn1ccnc(NC2CCN(C/C(C)=C/c3ccccc3)CC2)c1=O [3-8]	79.4	15.8	794	–	–	–
COc1ccc(-n2ccnc(NC3CCN(C/C(C)=C/c4ccccc4)CC3)c2=O)cc1 [3-9]	5.01	7.94	50.1	–	–	–
COc1cccc(Cn2ccnc(NC3CCN(C/C(C)=C/c4ccccc4)CC3)c2=O)c1 [3-10]	79.4	31.6	794	–	–	–
COc1ccc(Cn2ccnc(NC3CCN(C/C(C)=C/c4ccccc4)CC3)c2=O)cc1 [3-11]	20	31.6	501	–	–	–
COC(=O)c1ccc(-n2ccnc(NC3CCN(C/C(C)=C/c4ccccc4)CC3)c2=O)cc1 [3-12]	31.6	15.8	501	–	–	–
COC(=O)c1cccc(Cn2ccnc(NC3CCN(C/C(C)=C/c4ccccc4)CC3)c2=O)c1 [3-13]	25.1	20	501	–	–	–
COC(=O)c1ccc(Cn2ccnc(NC3CCN(C/C(C)=C/c4ccccc4)CC3)c2=O)cc1 [3-14]	79.4	63.1	794	–	–	–
CCOC(=O)Cn1ccnc(NC2CCN(C/C(C)=C/c3ccccc3)CC2)c1=O [3-16]	126	15.8	> 10000	–	–	–
CCOC(=O)CCCCn1ccnc(NC2CCN(C/C(C)=C/c3ccccc3)CC2)c1=O [3-17]	126	15.8	794	–	–	–
C/C(=C\c1ccccc1)CN1CCC(Nc2nccn(CCOc3ccccc3)c2=O)CC1 [3-18]	126	31.6	158	–	–	–
C/C(=C\c1ccccc1)CN1CCC(Nc2nccn(CCCOc3ccccc3)c2=O)CC1 [3-19]	63.1	20	200	–	–	–
C/C(=C\c1ccccc1)CN1CCC(Nc2nccn(CC(=O)OCc3ccccc3)c2=O)CC1 [3-20]	100	15.8	3980	–	–	–
COCCOCCn1ccnc(NC2CCN(C/C(C)=C/c3ccccc3)CC2)c1=O [3-21]	316	39.8	3980	–	–	–
CSCCn1ccnc(NC2CCN(C/C(C)=C/c3ccccc3)CC2)c1=O [4-1]	39.8	20	3160	–	–	–
CSc1ccc(-n2ccnc(NC3CCN(C/C(C)=C/c4ccccc4)CC3)c2=O)cc1 [4-2]	12.6	6.31	158	–	–	–

More lines, now with the values ahead:

IC50 (hα2A receptor) [nM]	IC50 (hα2C receptor) [nM]	IC50 (5HT-Transporter) [nM]	h-α2A pIC50 (hα2A receptor)	h-α2C pIC50 (hα2C receptor)	h-5HTT pIC50 (5HT-Transporter)	Structure (SMILES)
31.6	5.01	1260	–	–	–	C/C(=C\c1ccccc1)CN1CCC(Nc2nccn(-c3ccccc3)c2=O)CC1 [5-1]
31.6	10	398	–	–	–	C/C(=C\c1ccccc1)CN1CCC(Nc2nccn(-c3ccc(F)cc3)c2=O)CC1 [5-2]
50.1	10	1000	–	–	–	C/C(=C\c1ccccc1)CN1CCC(Nc2nccn(-c3ccc(C#N)cc3)c2=O)CC1 [5-3]
39.8	12.6	398	–	–	–	CCc1ccc(-n2ccnc(NC3CCN(C/C(C)=C/c4ccccc4)CC3)c2=O)cc1 [5-4]
39.8	6.31	2000	–	–	–	C/C(=C\c1ccccc1)CN1CCC(Nc2nccn(-c3ccc(C=O)cc3)c2=O)CC1 [5-6]
25.1	10	631	–	–	–	CC(=O)c1ccc(-n2ccnc(NC3CCN(C/C(C)=C/c4ccccc4)CC3)c2=O)cc1 [5-7]
200	50.1	1580	–	–	–	C/C(=C\c1ccccc1)CN1CCC(Nc2nccn(Cc3ccccc3)c2=O)CC1 [5-8]
158	50.1	1000	–	–	–	C/C(=C\c1ccccc1)CN1CCC(Nc2nccn(Cc3ccc(C)cc3)c2=O)CC1 [5-9]
79.4	25.1	398	–	–	–	C/C(=C\c1ccccc1)CN1CCC(Nc2nccn(Cc3ccccc3C)c2=O)CC1 [5-10]
158	31.6	501	–	–	–	C/C(=C\c1ccccc1)CN1CCC(Nc2nccn(Cc3ccccc3F)c2=O)CC1 [5-11]
100	25.1	501	–	–	–	C/C(=C\c1ccccc1)CN1CCC(Nc2nccn(Cc3cccc(F)c3)c2=O)CC1 [5-12]
158	63.1	1260	–	–	–	C/C(=C\c1ccccc1)CN1CCC(Nc2nccn(Cc3ccc(F)cc3)c2=O)CC1 [5-13]
50.1	12.6	200	–	–	–	C/C(=C\c1ccccc1)CN1CCC(Nc2nccn(Cc3ccccc3Br)c2=O)CC1 [5-14]
79.4	25.1	398	–	–	–	C/C(=C\c1ccccc1)CN1CCC(Nc2nccn(Cc3cccc(Br)c3)c2=O)CC1 [5-15]
126	50.1	501	–	–	–	C/C(=C\c1ccccc1)CN1CCC(Nc2nccn(Cc3ccc(Br)cc3)c2=O)CC1 [5-16]
63.1	20	251	–	–	–	C/C(=C\c1ccccc1)CN1CCC(Nc2nccn(Cc3ccccc3Cl)c2=O)CC1 [5-17]
126	39.8	631	–	–	–	C/C(=C\c1ccccc1)CN1CCC(Nc2nccn(Cc3cccc(Cl)c3)c2=O)CC1 [5-18]
100	20	398	–	–	–	C/C(=C\c1ccccc1)CN1CCC(Nc2nccn(Cc3ccccc3C#N)c2=O)CC1 [5-19]
501	100	5010	–	–	–	C/C(=C\c1ccccc1)CN1CCC(Nc2nccn(Cc3ccc(C#N)cc3)c2=O)CC1 [5-20]
158	25.1	398	–	–	–	C/C(=C\c1ccccc1)CN1CCC(Nc2nccn(Cc3ccccc3C(F)(F)F)c2=O)CC1 [5-21]
126	50.1	794	–	–	–	C/C(=C\c1ccccc1)CN1CCC(Nc2nccn(Cc3cccc(C(F)(F)F)c3)c2=O)CC1 [5-22]
200	79.4	794	–	–	–	C/C(=C\c1ccccc1)CN1CCC(Nc2nccn(Cc3ccc(C(F)(F)F)cc3)c2=O)CC1 [5-23]
